From patent publication US6500842B1, “8-hydroxy-7-substituted quinolines as anti-viral agents” (Pharmacia & Upjohn Company, priority 1996, dated 2002)
“And” between values parts separate entries of the source, which are not always exact repeats. Identical values can stand only once. Like-named read-outs stand apart in the source and are kept apart here.

How the values were obtained:
HCMV = experiment: CMV antiviral assay, cell culture based ELISA in human foreskin fibroblast cells; design: species or system human cytomegalovirus (HCMV)
Experimental: Compounds are tested for direct antiviral activity against HCMV using a cell culture based assay. An ELISA (enzyme linked immunosorbant assay) format is used as described in W. A. Tatarowicz, N. S. Lurain and K. D. Thompson, J. Virol. Meth., 35:207-215 (1991). Human foreskin fibroblast cells are infected with HCMV at a multiplicity of 0.025 plaque forming units per microtiter plate well for a period of 90 minutes. The virus inocula is removed and a suspension of test compound prepared in tissue culture media is added for a period of 4 days. The growth media is aspirated and replaced with 95% ethanol to allow fixation of virus infected cultures. The ethanol is removed and the wells are washed twice with saline. A solution of 2% dry fat milk, 1% bovine sera albumin prepared in saline is added to wells to allow for non-specific binding of protein material to plastic surfaces for 1 hr. Murine monoclonal antibody prepared in saline directed against the late (65 KD) matrix protein of HCMV is added to test wells for 1 hr. The wells are washed twice and antibody, conjugated with the enzyme horse radish peroxidase, with specificity against murine IgG is added to test wells for 1 hr. Test wells are washed three times with saline. A solution of o-phenylene diamine, a substrate for horse radish peroxidase is added for 15 minutes at which time enzymatic conversion occurs indicating reactivity of the enzyme with its substrate. This conversion is evident as a color reaction which was spectrophoretically monitored at 490 nm. The intensity of the color indirectly reflects the presence of antibody directed against the viral 65 KD matrix antigen. The presence of the viral matrix antigen refects the amount of HCMV replication. Thus, test wells, in which little viral replication has occurred, would have little or no antibody binding and are present with low levels of color. Non-infected wells serve as the assay background control.

CMV polymerase = molecular target: T1, CMV polymerase (Human cytomegalovirus, UniProt P08546); experiment: modified version of the HCMV polymerase assay (100% DMSO dilution, DTT, different enzyme lot); format: biochemical; conditions: for IC50: read-out: IC50
T1 construct: made in house; host or cells: recombinant baculovirus-infected SF-9 cells
Experimental: The HCMV polymerase assay is performed using a scintillation proximity assay (SPA) as described in several references, such as N. D. Cook, et al., Pharmaceutical Manufacturing International, pages 49-53 (1992); K. Takeuchi, Laboratory Practice, September issue (1992); U.S. Pat. No. 4,568,649 (1986); which are incorporated by reference herein. Reactions are performed in 96-well plates. The assay is conducted in 100 μl volume with 5.4 mM HEPES (pH 7.5), 11.7 mM KCl, 4.5 mM MgCl2, 0.36 mg/ml BSA, and 90 nM ^3H-dTTP. Assays are run with and without CHAPS, (3-[(3-Cholamidopropyl)-dimethylammonio]-1-propane-sulfonate) at a final concentration of 2 mM. HCMV is diluted in enzyme dilution buffer containing 50% glycerol, 250 mM NaCl, 10 mM HEPES (pH 7.5), 100 pg/ml BSA, and 0.01% sodium azide. The HCMV polymerase, which is expressed in recombinant baculovirus-infected SF-9 cells and purified according to literature procedures, is added at 10% (or 10 μl) of the final reaction volume, i.e., 100 μl. Compounds are diluted in 50% DMSO and 10 μl are added to each well. Control wells contain an equivalent concentration of DMSO. Unless noted otherwise, reactions are initiated via the addition of 6 nM biotinylated poly(dA)-oligo(dT) template/primer to reaction mixtures containing the enzyme, substrate, and compounds of interest. Plates are incubated in a 25° C. of 37° C. H2O bath and terminated via the addition of 40 μl/reaction of 0.5 M EDTA (pH 8) per well. Reactions are terminated within the time-frame during which substrate incorporation is linear and varied depending upon the enzyme and conditions used, i.e., 30 min. for HCMV polymerase. Ten μl of streptavidin-SPA beads (20 mg/ml in PBS/10% glycerol) are added following termination of the reaction. Plates are incubated 10 min. at 37° C., then equilibrated to room temperature, and counted on a Packard Topcount. Linear regressions are performed and IC50's are calculated using computer software. Results of the testing of compounds of the present invention in this assay are shown in Tables 1, 2, 5, 9, 10, 11, 13 (except for the last compound which was tested under modified conditions) and 14 below.
A modified version of the above HCMV polymerase assay is performed as described above, but with the following changes: Compounds are diluted in 100% DMSO until final dilution into assay buffer. In the previous assay, compounds are diluted in 50% DMSO. 4.5 mM dithiotherotol (DTT) is added to the polymerase buffer.

[1] = Human betaherpesvirus 5, Fibroblast, read-out: CMV Antiviral Assay IC50 (AV), Table 12
[2] = read-out: CMV Antiviral Assay IC50 (AV), Table 12

T1 sequence (P08546 whole entry): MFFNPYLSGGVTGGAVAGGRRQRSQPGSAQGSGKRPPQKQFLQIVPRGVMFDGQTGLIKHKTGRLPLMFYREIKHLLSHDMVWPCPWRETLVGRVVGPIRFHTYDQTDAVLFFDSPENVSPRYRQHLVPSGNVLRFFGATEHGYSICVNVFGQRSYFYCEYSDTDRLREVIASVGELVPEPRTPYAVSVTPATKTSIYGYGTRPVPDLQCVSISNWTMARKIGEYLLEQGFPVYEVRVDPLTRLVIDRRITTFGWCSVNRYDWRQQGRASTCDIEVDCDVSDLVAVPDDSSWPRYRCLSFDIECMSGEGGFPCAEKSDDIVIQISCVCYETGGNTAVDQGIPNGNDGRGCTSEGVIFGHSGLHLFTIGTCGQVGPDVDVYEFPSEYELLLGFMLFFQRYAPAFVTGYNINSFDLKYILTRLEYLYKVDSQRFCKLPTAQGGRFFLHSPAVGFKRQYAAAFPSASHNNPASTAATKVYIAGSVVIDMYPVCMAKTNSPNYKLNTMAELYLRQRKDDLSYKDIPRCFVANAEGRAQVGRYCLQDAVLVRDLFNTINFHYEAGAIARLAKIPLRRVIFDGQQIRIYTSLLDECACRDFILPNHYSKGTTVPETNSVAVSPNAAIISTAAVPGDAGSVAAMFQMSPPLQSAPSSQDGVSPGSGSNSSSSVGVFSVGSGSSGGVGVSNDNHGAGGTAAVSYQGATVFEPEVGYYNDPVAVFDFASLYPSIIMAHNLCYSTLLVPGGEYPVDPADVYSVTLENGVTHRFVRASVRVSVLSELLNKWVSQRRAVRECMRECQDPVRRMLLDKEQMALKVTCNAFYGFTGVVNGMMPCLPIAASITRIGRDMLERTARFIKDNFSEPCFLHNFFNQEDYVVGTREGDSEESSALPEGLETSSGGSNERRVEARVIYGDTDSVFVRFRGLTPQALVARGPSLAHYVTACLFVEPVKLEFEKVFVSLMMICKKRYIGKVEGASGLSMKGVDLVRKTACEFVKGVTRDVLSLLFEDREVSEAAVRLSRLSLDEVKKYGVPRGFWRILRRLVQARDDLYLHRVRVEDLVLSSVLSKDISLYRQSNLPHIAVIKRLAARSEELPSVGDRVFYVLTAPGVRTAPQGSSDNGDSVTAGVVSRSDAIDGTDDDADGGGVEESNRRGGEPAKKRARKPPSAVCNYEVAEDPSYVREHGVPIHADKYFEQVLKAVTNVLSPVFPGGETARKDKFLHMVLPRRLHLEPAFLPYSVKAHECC

O=C(Nc1nc2ccc(Cl)cc2s1)c1ccc2cccnc2c1O [drawing 325]
IC50 (HCMV; [1]): 25.5 µM

Cc1ccc2c(Cl)cc(S(=O)(=O)NCc3ccccn3)c(O)c2n1 [drawing 327]
IC50 (HCMV; [1]): 14.4 µM
IC50 (HCMV; [2]): 14.1 µM and 9.4 µM

Cc1ccc2c(Cl)cc(S(=O)(=O)NCCCCc3ccccc3)c(O)c2n1 [Example 61, 5-Chloro-8-hydroxy-2-methyl-N-(4-phenylbutyl)-7-quinoline-sulfonamide]
inhibition at 3.13 µM (CMV polymerase; Concentration 3.13 μM, Table 6): 13%
inhibition at 6.25 µM (CMV polymerase; Concentration 6.25 μM, Table 6): 15%
inhibition at 12.5 µM (CMV polymerase; Concentration 12.5 μM, Table 6): 23%
inhibition at 25 µM (CMV polymerase; Concentration 25 μM, Table 6): 30%
inhibition at 50 µM (CMV polymerase; Concentration 50 μM, Table 6): 30%
inhibition at 100 µM (CMV polymerase; Concentration 100 μM, Table 6): 38%
inhibition at 200 µM (CMV polymerase; Concentration 200 μM, Table 6): 51%
IC50 (CMV polymerase; Table 6): > 200 µM
melting point: 84 to 86 °C

N#CCNC(=O)c1ccc2cccnc2c1O [drawing 130]
IC50 (HCMV; Human betaherpesvirus 5, Fibroblast, read-out: CMV Antiviral Assay IC50 (AV), Table 7): 3 µM

Cc1ccc2c(Cl)cc(S(=O)(=O)NCc3ccccn3)c(O)c2n1 [Example 59, 5-Chloro-8-hydroxy-2-methyl-N-(2-pyridinylmethyl)-7-quinolinesulfonamide]
inhibition at 3.13 µM (CMV polymerase; Concentration 3.13 μM, Table 6): -7%
inhibition at 6.25 µM (CMV polymerase; Concentration 6.25 μM, Table 6): -6%
inhibition at 12.5 µM (CMV polymerase; Concentration 12.5 μM, Table 6): -3%
inhibition at 25 µM (CMV polymerase; Concentration 25 μM, Table 6): 0%
inhibition at 50 µM (CMV polymerase; Concentration 50 μM, Table 6): 14%
inhibition at 100 µM (CMV polymerase; Concentration 100 μM, Table 6): 31%
inhibition at 200 µM (CMV polymerase; Concentration 200 μM, Table 6): 43%
IC50 (CMV polymerase; Table 6): > 200 µM
melting point: 185 to 186 °C

Cc1ccc2c(Cl)cc(S(=O)(=O)NCCc3ccc(NS(=O)(=O)c4c(C)noc4C)cc3)c(O)c2n1 [Example 65, 5-Chloro-8-hydroxy-2-methyl-N-[2-[4-[[(3,5-dimethyl-4-isoxazolyl)sulfonyl]amino]phenyl]ethyl]-7-quinoline-sulfonamide]
inhibition at 3.13 µM (CMV polymerase; Concentration 3.13 μM, Table 6): -8%
inhibition at 6.25 µM (CMV polymerase; Concentration 6.25 μM, Table 6): -8%
inhibition at 12.5 µM (CMV polymerase; Concentration 12.5 μM, Table 6): -13%
inhibition at 25 µM (CMV polymerase; Concentration 25 μM, Table 6): -21%
inhibition at 50 µM (CMV polymerase; Concentration 50 μM, Table 6): -23%
inhibition at 100 µM (CMV polymerase; Concentration 100 μM, Table 6): -23%
inhibition at 200 µM (CMV polymerase; Concentration 200 μM, Table 6): -8%
IC50 (CMV polymerase; Table 6): > 200 µM
melting point: 147 to 152 °C (dec.)

Cc1ccc2c(Cl)cc(S(=O)(=O)NCCOc3ccccc3)c(O)c2n1 [Example 35, 5-Chloro-8-hydroxy-2-methyl-N-(2-phenoxyethyl)-7-quinoline-sulfonamide]
inhibition at 3.13 µM (CMV polymerase; Concentration 3.13 uM, Table 3): 31%
inhibition at 6.25 µM (CMV polymerase; Concentration 6.25 uM, Table 3): 41%
inhibition at 12.5 µM (CMV polymerase; Concentration 12.5 uM, Table 3): 44%
inhibition at 50 µM (CMV polymerase; Concentration 50 uM, Table 3): 89%
inhibition at 100 µM (CMV polymerase; Concentration 100 uM, Table 3): 96%
IC50 (CMV polymerase; Table 3): 10 µM
melting point: 106 to 107 °C

Cc1ccc2c(Cl)cc(S(=O)(=O)NCCc3ccccn3)c(O)c2n1 [Example 62, 5-Chloro-8-hydroxy-2-methyl-N-[2-(2-pyridinyl)ethyl]-7-quinolinesulfonamide]
inhibition at 3.13 µM (CMV polymerase; Concentration 3.13 μM, Table 6): 1%
inhibition at 6.25 µM (CMV polymerase; Concentration 6.25 μM, Table 6): 3%
inhibition at 12.5 µM (CMV polymerase; Concentration 12.5 μM, Table 6): 6%
inhibition at 25 µM (CMV polymerase; Concentration 25 μM, Table 6): 10%
inhibition at 50 µM (CMV polymerase; Concentration 50 μM, Table 6): 14%
inhibition at 100 µM (CMV polymerase; Concentration 100 μM, Table 6): 33%
inhibition at 200 µM (CMV polymerase; Concentration 200 μM, Table 6): 42%
IC50 (CMV polymerase; Table 6): > 200 µM
melting point: 153 to 155 °C

N#Cc1ccc(NC(=O)c2ccc3cccnc3c2O)cc1 [drawing 331]
IC50 (HCMV; Human betaherpesvirus 5, Fibroblast, Table 12, read-out: CMV Antiviral Assay IC50 (AV)): 3.9 µM

Cc1ccc2c(Cl)cc(S(=O)(=O)NCCCc3ccccc3)c(O)c2n1 [Example 34, 5-Chloro-8-hydroxy-2-methyl-N-(3-phenylpropyl)-7-quinoline-sulfonamide]
inhibition at 6.25 µM (CMV polymerase; Concentration 6.25 uM, Table 3): 21%
inhibition at 12.5 µM (CMV polymerase; Concentration 12.5 uM, Table 3): 57%
inhibition at 25 µM (CMV polymerase; Concentration 25 uM, Table 3): 63%
inhibition at 50 µM (CMV polymerase; Concentration 50 uM, Table 3): 54%
inhibition at 100 µM (CMV polymerase; Concentration 100 uM, Table 3): 97%
IC50 (CMV polymerase; Table 3): 17.2 µM
melting point: 131 to 134 °C

Cc1ccc2c(Cl)cc(S(=O)(=O)NCCCN3CCOCC3)c(O)c2n1 [drawing 326]
IC50 (HCMV; [1]): 2.5 µM
IC50 (HCMV; [2]): 3.6 µM

Cc1ccc2c(Cl)cc(S(=O)(=O)N[C@H](C)c3ccccc3)c(O)c2n1 [Example 39, (R)-5-Chloro-8-hydroxy-2-methyl-N-(1-phenylethyl)-7-quinolinesulfonamide]
inhibition at 3.13 µM (CMV polymerase; Concentration 3.13 uM, Table 3): 16%
inhibition at 6.25 µM (CMV polymerase; Concentration 6.25 uM, Table 3): 28%
inhibition at 12.5 µM (CMV polymerase; Concentration 12.5 uM, Table 3): 43%
inhibition at 25 µM (CMV polymerase; Concentration 25 uM, Table 3): 41%
inhibition at 50 µM (CMV polymerase; Concentration 50 uM, Table 3): 79%
inhibition at 100 µM (CMV polymerase; Concentration 100 uM, Table 3): 71%
inhibition at 200 µM (CMV polymerase; Concentration 200 uM, Table 3): 90%
IC50 (CMV polymerase; Table 3): 21.6 µM
melting point: 84 to 88 °C

Cc1ccc2c(Cl)cc(S(=O)(=O)NCCCCc3ccccc3)c(O)c2n1 [drawing 328]
IC50 (HCMV; [1]): 3.5 µM

O=S(=O)(NCCSc1ccccc1)c1cc(Cl)c2ccc(/C=C/c3ccccc3)nc2c1O [Example 63, (E)-5-Chloro-8-hydroxy-2-(2-phenylethenyl)-N-[2-(phenylthio)ethyl]-7-quinolinesulfonamide]
inhibition at 3.13 µM (CMV polymerase; Concentration 3.13 μM, Table 6): 29%
inhibition at 6.25 µM (CMV polymerase; Concentration 6.25 μM, Table 6): 34%
inhibition at 12.5 µM (CMV polymerase; Concentration 12.5 μM, Table 6): 49%
inhibition at 25 µM (CMV polymerase; Concentration 25 μM, Table 6): 71%
inhibition at 50 µM (CMV polymerase; Concentration 50 μM, Table 6): 74%
inhibition at 100 µM (CMV polymerase; Concentration 100 μM, Table 6): 92%
IC50 (CMV polymerase; Table 6): 11.4 µM
melting point: 187 to 193 °C

Cc1ccc2c(Cl)cc(S(=O)(=O)NCCCn3ccnc3)c(O)c2n1 [Example 37, 5-Chloro-8-hydroxy-N-[3-(1H-imidazol-1-yl)propyl]-2-methyl-7-quinolinesulfonamide]
inhibition at 6.25 µM (CMV polymerase; Concentration 6.25 uM, Table 3): 3%
inhibition at 12.5 µM (CMV polymerase; Concentration 12.5 uM, Table 3): 12%
inhibition at 25 µM (CMV polymerase; Concentration 25 uM, Table 3): 21%
inhibition at 50 µM (CMV polymerase; Concentration 50 uM, Table 3): 50%
inhibition at 100 µM (CMV polymerase; Concentration 100 uM, Table 3): 55%
IC50 (CMV polymerase; Table 3): 72.3 µM
melting point: 194 to 196 °C

Cc1ccc2c(Cl)cc(S(=O)(=O)NC(c3ccccc3)c3ccccc3)c(O)c2n1 [Example 38, 5-Chloro-N-(diphenylmethyl)-8-hydroxy-2-methyl-7-quinoline-sulfonamide]
inhibition at 6.25 µM (CMV polymerase; Concentration 6.25 uM, Table 3): 36%
inhibition at 12.5 µM (CMV polymerase; Concentration 12.5 uM, Table 3): 58%
inhibition at 25 µM (CMV polymerase; Concentration 25 uM, Table 3): 62%
inhibition at 50 µM (CMV polymerase; Concentration 50 uM, Table 3): 96%
inhibition at 100 µM (CMV polymerase; Concentration 100 uM, Table 3): 97%
IC50 (CMV polymerase; Table 3): 10.5 µM
melting point: 115 to 119 °C
